# According to US20210054320A1, “NEURON CULTIVATION DEVICE, NEURON CULTIVATING METHOD, CULTIVATED NEURON, ANALYSIS AND IDENTIFICATION OF PROTEIN IN AXON BUNDLE, AND USAGE OF CULTIVATED NEURON” (THE FOUNDATION FOR THE PROMOTION OF INDUSTRIAL SCIENCE, priority 2016, published 2021):
# Columns and labels:
# Assay type in all cases: cell-based
# [1] = test system: motoneurons derived from human iPS cells (409B2 cell lines); test: oxidative stress test, Directionality (orientation of axon) after Tau 1 immunostaining; settings: H2O2 3 hour treatment, PBS washing, culture medium with or without Edaravone; evaluated two days after treatment; highest = negative control
# Procedure: Here, cell body spheroids were produced by inoculating motoneurons derived from human iPS cells (409B2 cell lines) in the nonadherent cultivation plate 10. Then, after 10 days of cultivation, the cell body spheroids were inoculated in the first chamber 12a of the module 11 of the cultivation plate 10. Then, after 30 days of cultivation, the treatments of the following (1)-(3) conditions were accomplished.
# (1) control PBS (Phosphate Buffered Saline) washing>>>culture medium
# (2) H2O2 3 hour treatment>>>PBS washing>>>culture medium
# (3) H2O2 3 hour treatment>>>PBS washing>>>culture medium containing Edaravone
# Two days after the treatment, evaluation was done after immunostaining by marker Tau 1. The evaluation item was Directionality, which was the orientation of axon. Specifically, the orientations of objects in FIG. 22 were measured In this case, 0 degree indicated the direction of fluid conduit (channel 13). Since the axons were bundled and extended in the same direction, their morphological changes in the channel 13 could be compared between in case of under oxidative stress, as shown in FIG. 22 (b), and in case of under oxidative stress accompanied by application of antioxidant (Edaravone), which was used as neurological disease drug, as shown in FIG. 22 (c). […]
# [2] = test system: motoneurons derived from human iPS cells (409B2 cell lines); test: calcium imaging of motoneuron spheroid with axon bundle after KCl stimulation; settings: 1 [mol] of KCl provided to the cell spheroid after fluorescent treatment
# From the text: FIG. 13 is a set of photographs showing motoneurons used for calcium imaging. In FIG. 13, (a) is a photograph of a spheroid with a bundle of axons outside the cultivation plate before adding calcium, (b) is a photograph of a spheroid with a bundle of axons outside the cultivation plate after adding calcium. In the present experiment, motoneurons derived from human iPS cells (409B2 cell lines) were used. The cell spheroids of the motoneurons were inoculated in the first chambers 12a and cultivated. The motoneurons and the cell spheroids were gained in the same way as mentioned above and the cultivation was accomplished in the same way as mentioned above. After cultivation, one of the motoneurons with a well grown and extended bundle of axons was extracted or brought out from the module 11 of the cultivation plate 10. Then 1 [mol] of KCl was provided to the cell spheroid, so that fluorescence became intense, as shown in FIG. 13(b), as a result of electrophysiological activity induced by the stimulation of KCl.
# [3] = test system: motoneurons derived from human iPS cells (409B2 cell lines); test: ER stress test on axon bundle (form and orientation of axon); settings: culture fluid including 1.5 [mol] of thapsigargin for 5 hours, evaluated 6 days later, versus untreated
# From the text: The first experiment was accomplished to confirm the effect of ER stress against motoneuron using thapsigargin. In the first experiment, motoneurons derived from human iPS cells (409B2 cell lines) were used. The cell body spheroids of the motoneurons were inoculated in the first chambers 12a and cultivated. The motoneurons and the cell body spheroids were gained in the same way as mentioned above and the cultivation was accomplished in the same way as mentioned above. After cultivation, one of the motoneurons with a well grown and extended axon bundle was treated with culture fluid including 1.5 [mol] of thapsigargin for 5 hours. Then, 6 days later, the form of the axon bundle was evaluated, as shown in FIG. 17(b), in comparison with another axon bundle of the motoneurons not treated with any thapsigargin, as shown in FIG. 17(a). It can be said that, when suffering stress, the orientation of the axon becomes low or the axon degenerates.
smiles,measurement,setting,value
CC1=NN(c2ccccc2)C(=O)C1 [Edaravone],"Directionality of the axon bundle in the direction of fluid conduit (0 degree), order among conditions",[1],the second
OO [H2O2],"Directionality of the axon bundle in the direction of fluid conduit (0 degree), order among conditions",[1],the third
[Cl-].[K+] [KCl],electrophysiological activity (fluorescence) of motoneuron including cell spheroid and bundle of axons,[2],became electrophysiologically active
C/C=C(/C)C(=O)O[C@H]1C(C)=C2[C@H]([C@@H]1OC(=O)CCCCCCC)[C@@](C)(OC(C)=O)C[C@H](OC(=O)CCC)[C@@]1(O)[C@H]2OC(=O)[C@@]1(C)O [thapsigargin],form of the axon bundle under ER stress,[3],became deformed
